According to patent publication US20250042879A1, “HETEROCYCLIC SUBSTITUTED 1,3,4-THIADIAZOLE AND PYRIDAZINE COMPOUNDS AND METHODS OF USING THE SAME” (Rgenta Therapeutics, Inc., priority 2021, published 2025):
Counter-ions that a name gives are not always drawn.

System: HTT
Experiment: Mini-gene reporter assay-HTT (firefly luciferase, exon inclusion)
Assay type: cell-based
Conditions: for Emax at 5 µM: HTT Minigene, read-out: % Efficacy at 5 μM; for EC50: Homo sapiens, HTT mini-gene firefly luciferase reporter transiently transfected into HEK293 cells
Method in brief: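 HEK293 cells transiently transfected with a pcDNA3.1 mini-gene carrying the alternatively skipped exon with flanking introns and exons fused to firefly luciferase were incubated with compound, in duplicate. Exon inclusion raises luciferase luminescence. EC50 came from Levenberg-Marquardt curve fitting.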

Structure (SMILES): COc1cc(-c2ccc(-c3ccc(C4CN(C(C)COC(C)C)C4)nn3)c(O)c2)cc2cn(C)nc12 (stereo not drawn) [Compound 148]
- Emax at 5 µM: 25 to 75%

Structure (SMILES): COc1cc(-c2ccc(-c3ccc(C4CN(Cc5cn(C(C)C)cn5)C4)nn3)c(O)c2)cc2cn(C)nc12 [Compound 191]
- Emax at 5 µM: 25 to 75%

Structure (SMILES): COc1cc(-c2ccc(-c3ccc(C4CN(C5CCOCC5)C4)nn3)c(O)c2)nc2cn(C)nc12 [Compound 65, 5-(7-methoxy-2-methyl-2H-pyrazolo[4,3-b]pyridin-5-yl)-2-(6-(1-(tetrahydro-2H-pyran-4-yl)azetidin-3-yl)pyridazin-3-yl)phenol hydrochloride]
- EC50: ≥ 1000 nM

Structure (SMILES): CCN1CC(c2ccc(-c3ccc(-c4ccc5nn(C)cc5c4)cc3O)nn2)C1 [Compound 24, 2-[6-(1-ethylazetidin-3-yl)pyridazin-3-yl]-5-(2-methyl-2H-indazol-5-yl)phenol]
- EC50: 50 to 500 nM

Structure (SMILES): CCN1CC(c2ccc(-c3ccc(-c4cc(C)n5nc(C)cc5c4)cc3O)nn2)C1 [Compound 41, 5-{2,7-dimethylpyrazolo[1,5-a]pyridin-5-yl}-2-[6-(1-ethylazetidin-3-yl)pyridazin-3-yl]phenol]
- EC50: ≥ 1000 nM

Structure (SMILES): Cc1cn2cc(-c3ccc(-c4ccc(C5CN(C(C)C6CCCCO6)C5)nn4)c(O)c3)cc(F)c2n1 (stereo not drawn) [Compound 122]
- Emax at 5 µM: 25 to 75%

Structure (SMILES): COc1cc(-c2ccc(-c3ccc(C4CN(CC5CCC6CC6C5)C4)nn3)c(O)c2)cc2cn(C)nc12 (stereo not drawn) [Compound 186]
- Emax at 5 µM: 25 to 75%

Structure (SMILES): COCC(C)CN1CC(c2ccc(-c3ccc(-c4cc(F)c5nc(C)cn5c4)cc3O)nn2)C1 (stereo not drawn) [Compound 104]
- Emax at 5 µM: 25 to 75%

Structure (SMILES): Cc1cn2cc(-c3ccc(-c4ccc(C5CN(C6COC(C)C6)C5)nn4)c(O)c3)cc(F)c2n1 (stereo not drawn) [Compound 119]
- Emax at 5 µM: 25 to 75%

Structure (SMILES): COc1cc(-c2ccc(-c3ccc(C4CN(Cc5ccc(O)nc5)C4)nn3)c(O)c2)cc2cn(C)nc12 [Compound 159]
- Emax at 5 µM: 25 to 75%

Structure (SMILES): COc1cc(-c2ccc(-c3ccc(C4CN(CC5(SC)CC5)C4)nn3)c(O)c2)cc2cn(C)nc12 [Compound 174]
- Emax at 5 µM: 25 to 75%

Structure (SMILES): COCC(C)N1CC(c2ccc(-c3ccc(-c4cc(F)c5nc(C)cn5c4)cc3O)nn2)C1 (stereo not drawn) [Compound 84]
- Emax at 5 µM: > 750%

Structure (SMILES): Cc1cn2cc(-c3ccc(-c4ccc(C5CN(Cc6cncnc6)C5)nn4)c(O)c3)cc(F)c2n1 [Compound 82]
- Emax at 5 µM: 25 to 75%

Structure (SMILES): Cn1cc2nc(-c3ccc(-c4ccc(C5CN(C6CCOCC6)C5)nn4)c(O)c3)ccc2n1 [Compound 51, 5-{2-methyl-2H-pyrazolo[4,3-b]pyridin-5-yl}-2-{6-[1-(oxan-4-yl)azetidin-3-yl]pyridazin-3-yl}phenol]
- EC50: 500 to 1000 nM

Structure (SMILES): Cc1cn2cc(-c3ccc(-c4ccc(C5CN(C6CCSC6)C5)nn4)c(O)c3)cc(F)c2n1 (stereo not drawn) [Compound 70]
- Emax at 5 µM: 25 to 75%

Structure (SMILES): COc1cc(-c2ccc(-c3ccc(C4CN(C5CCOC6(CCC6)C5)C4)nn3)c(O)c2)cc2cn(C)nc12 (stereo not drawn) [Compound 172]
- Emax at 5 µM: 25 to 75%

Structure (SMILES): Cc1cn2cc(-c3ccc(-c4ccc(C5CNC5)nn4)c(O)c3)nc(C)c2n1 [Compound 9, 2-[6-(azetidin-3-yl)pyridazin-3-yl]-5-{2,8-dimethylimidazo[1,2-a]pyrazin-6-yl}phenol]
- EC50: 50 to 500 nM

Structure (SMILES): COc1cc(-c2ccc(-c3ccc(C4CN(Cc5cccnc5C)C4)nn3)c(O)c2)cc2cn(C)nc12 [Compound 150]
- Emax at 5 µM: 25 to 75%

Structure (SMILES): Cc1cn2cc(-c3ccc(-c4ccc(C5CN(CC6CCSCC6)C5)nn4)c(O)c3)cc(F)c2n1 [Compound 109]
- Emax at 5 µM: > 750%

Structure (SMILES): Cc1cn2cc(-c3ccc(-c4ccc(C5CN(C)C5)nn4)c(O)c3)nc(C)c2n1 [Compound 20, 5-{2,8-dimethylimidazo[1,2-a]pyrazin-6-yl}-2-[6-(1-methylazetidin-3-yl)pyridazin-3-yl]phenol]
- EC50: 500 to 1000 nM

Structure (SMILES): CCOc1cc(-c2ccc(-c3ccc(C4CN(C5CCOCC5)C4)nn3)c(O)c2)cc2cn(C)nc12 [Compound 54, 5-(7-ethoxy-2-methyl-2H-indazol-5-yl)-2-{6-[1-(oxan-4-yl)azetidin-3-yl]pyridazin-3-yl}phenol]
- EC50: ≥ 1000 nM

Structure (SMILES): COc1cc(-c2ccc(-c3ccc(C4CN(Cc5ccccn5)C4)nn3)c(O)c2)cc2cn(C)nc12 [Compound 129]
- Emax at 5 µM: < 25%

Structure (SMILES): COc1cc(-c2ccc(-c3ccc(C4CN(C5CCOC(C)C5)C4)nn3)c(O)c2)cc2cn(C)nc12 (stereo not drawn) [Compound 145]
- Emax at 5 µM: 25 to 75%

Structure (SMILES): CCN1CCC(N2CC(c3ccc(-c4ccc(-c5cc(OC)c6nn(C)cc6c5)cc4O)nn3)C2)CC1 [Compound 132]
- Emax at 5 µM: < 25%

Structure (SMILES): Cc1cn2cc(-c3ccc(-c4ccc(C5CN(C6CCOCC6)C5)nn4)c(O)c3)cc(F)c2n1 [Compound 18, 5-{8-fluoro-2-methylimidazo[1,2-a]pyridin-6-yl}-2-{6-[1-(oxan-4-yl)azetidin-3-yl]pyridazin-3-yl}phenol]
- EC50: 500 to 1000 nM

Structure (SMILES): CCCn1cc(CN2CC(c3ccc(-c4ccc(-c5cc(F)c6nc(C)cn6c5)cc4O)nn3)C2)cn1 [Compound 91]
- Emax at 5 µM: 25 to 75%

Structure (SMILES): Cn1cc2cc(-c3ccc(-c4ccc(C5CNC5)nn4)c(O)c3)ccc2n1 [Compound 16, 2-[6-(azetidin-3-yl)pyridazin-3-yl]-5-(2-methyl-2H-indazol-5-yl)phenol]
- EC50: 50 to 500 nM

Structure (SMILES): COc1cc(-c2ccc(-c3ccc(C4CN(Cc5cncs5)C4)nn3)c(O)c2)cc2cn(C)nc12 [Compound 141]
- Emax at 5 µM: 25 to 75%

Structure (SMILES): Cc1cn2cc(-c3ccc(-c4ccc(C5CN(Cc6cn(C(C)C)nn6)C5)nn4)c(O)c3)cc(F)c2n1 [Compound 116]
- Emax at 5 µM: 25 to 75%

Structure (SMILES): COCn1nccc1CN1CC(c2ccc(-c3ccc(-c4cc(F)c5nc(C)cn5c4)cc3O)nn2)C1 [Compound 127]
- Emax at 5 µM: < 25%

Structure (SMILES): Cc1cn2cc(-c3ccc(-c4ccc(C5CN(Cc6cnn(CCF)c6)C5)nn4)c(O)c3)cc(F)c2n1 [Compound 102]
- Emax at 5 µM: > 750%

Structure (SMILES): Cc1cn2cc(-c3ccc(-c4ccc(C5CNC5)nn4)c(O)c3)cc(C)c2n1 [Compound 4, 2-(6-(azetidin-3-yl)pyridazin-3-yl)-5-(2,8-dimethylimidazo[1,2-a]pyridin-6-yl)phenol hydrochloride]
- EC50: ≥ 1000 nM

Structure (SMILES): Cc1cn2cc(-c3ccc(-c4ccc(C5CN(CC6(F)CC6)C5)nn4)c(O)c3)cc(F)c2n1 [Compound 108]
- Emax at 5 µM: > 750%

Structure (SMILES): Cc1cn2cc(-c3ccc(-c4ccc(C5CNC5)nn4)c(O)c3)ncc2n1 [Compound 33, 2-[6-(azetidin-3-yl)pyridazin-3-yl]-5-{2-methylimidazo[1,2-a]pyrazin-6-yl}phenol]
- EC50: 500 to 1000 nM

Structure (SMILES): Cc1cc2cc(-c3ccc(-c4ccc(C5CNC5)nn4)c(O)c3)ccn2n1 [Compound 13, 2-[6-(azetidin-3-yl)pyridazin-3-yl]-5-{2-methylpyrazolo[1,5-a]pyridin-5-yl}phenol]
- EC50: ≥ 1000 nM

Structure (SMILES): COc1cc(-c2ccc(-c3ccc(C4CN(CC5C6CCCCC65)C4)nn3)c(O)c2)cc2cn(C)nc12 (stereo not drawn) [Compound 190]
- Emax at 5 µM: 25 to 75%

Structure (SMILES): CCN1CC(c2ccc(-c3ccc(-c4cc5cn(C)nc5cn4)cc3O)nn2)C1 [Compound 46, 2-[6-(1-ethylazetidin-3-yl)pyridazin-3-yl]-5-{2-methyl-2H-pyrazolo[3,4-c]pyridin-5-yl}phenol]
- EC50: 500 to 1000 nM

Structure (SMILES): Cc1cn2cc(-c3ccc(-c4ccc(C5CN(Cc6cnn(C)n6)C5)nn4)c(O)c3)cc(F)c2n1 [Compound 117]
- Emax at 5 µM: 25 to 75%

Structure (SMILES): CCN1CC(c2ccc(-c3ccc(-c4ccc5nccn5n4)cc3O)nn2)C1 [Compound 47, 2-[6-(1-ethylazetidin-3-yl)pyridazin-3-yl]-5-{imidazo[1,2-b]pyridazin-6-yl}phenol]
- EC50: 500 to 1000 nM
